Data taken from ChEMBL document CHEMBL1938367, “Novel potent 2,5-pyrrolidinedione peptidomimetics as aminopeptidase N inhibitors. Design, synthesis and activity evaluation” (Bioorg Med Chem Lett, 2012).

Experiments:
Aminopeptidase N = target: T1, Aminopeptidase N (Sus scrofa, UniProt P15145); test: Inhibition of porcine kidney microsomal aminopeptidase N using L-Leu-p-nitroanilide as substrate pre-incubated for 30 mins prior substrate addition by UV-VIS spectrophotometry
T1 sequence (P15145 whole entry): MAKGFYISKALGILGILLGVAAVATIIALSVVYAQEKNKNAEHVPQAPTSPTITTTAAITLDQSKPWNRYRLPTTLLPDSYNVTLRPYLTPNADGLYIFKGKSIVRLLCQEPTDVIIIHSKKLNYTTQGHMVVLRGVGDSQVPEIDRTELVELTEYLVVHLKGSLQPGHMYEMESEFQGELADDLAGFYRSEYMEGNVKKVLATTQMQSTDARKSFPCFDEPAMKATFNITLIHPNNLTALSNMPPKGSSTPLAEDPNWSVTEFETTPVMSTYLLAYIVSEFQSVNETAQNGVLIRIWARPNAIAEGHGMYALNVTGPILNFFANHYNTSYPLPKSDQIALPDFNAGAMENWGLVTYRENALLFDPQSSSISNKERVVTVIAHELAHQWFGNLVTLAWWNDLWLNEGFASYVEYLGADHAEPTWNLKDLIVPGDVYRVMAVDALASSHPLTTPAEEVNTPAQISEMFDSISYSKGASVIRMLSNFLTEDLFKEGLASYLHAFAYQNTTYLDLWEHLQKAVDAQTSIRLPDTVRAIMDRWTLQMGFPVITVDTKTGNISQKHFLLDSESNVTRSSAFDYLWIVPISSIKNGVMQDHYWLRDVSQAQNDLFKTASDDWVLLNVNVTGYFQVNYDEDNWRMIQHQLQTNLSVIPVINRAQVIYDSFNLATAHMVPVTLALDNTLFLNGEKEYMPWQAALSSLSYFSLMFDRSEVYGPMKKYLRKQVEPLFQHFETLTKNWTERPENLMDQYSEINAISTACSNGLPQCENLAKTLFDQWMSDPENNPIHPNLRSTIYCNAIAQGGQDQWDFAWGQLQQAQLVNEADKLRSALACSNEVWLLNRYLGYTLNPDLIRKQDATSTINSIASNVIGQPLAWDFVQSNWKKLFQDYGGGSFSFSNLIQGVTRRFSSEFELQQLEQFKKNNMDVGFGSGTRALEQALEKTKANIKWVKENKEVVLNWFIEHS

[1] = target: T2, Aminopeptidase N (Sus scrofa) (UniProt P15145); test: Ratio of bestatin IC50 to compound IC50 for porcine kidney microsomal aminopeptidase N
T2 sequence (whole entry): T1 sequence (P15145 whole entry)

H22 = test: Antimetastatic activity against […] H22 cells xenografted in mouse assessed as inhibition of metastasized nodes on lung surface dosed orally 6 days/week for 2 weeks; assay type: functional
HL-60 = test: Antiproliferative activity against human HL60 cells after 48 hrs by MTT assay; assay type: functional, cell-based; conditions: HL-60, 48 h

SMILES | IC50 (Aminopeptidase N) [nM] | also measured
NCCCC[C@H](N)C(=O)N[C@H]1CC(=O)N(CC(=O)NO)C1=O | 1000 | –
CC(C)[C@H](N)C(=O)N[C@H]1CC(=O)N(CC(=O)NO)C1=O | 1000 | –
C[C@H](N)C(=O)N[C@H]1CC(=O)N(CC(=O)NO)C1=O | 1000 | –
N[C@@H](Cc1ccc(O)cc1)C(=O)N[C@H]1CC(=O)N(CC(=O)NO)C1=O | 1000 | –
CC[C@@H](C)[C@H](N)C(=O)N[C@H]1CC(=O)N(CC(=O)NO)C1=O | 1000 | –
CC(C)C[C@H](NC(=O)[C@@H](O)[C@H](N)Cc1ccccc1)C(=O)N1CCC[C@H]1C(=O)N1CCC[C@H]1C(=O)O | – | Ratio IC50 [1]: 50
CC(C)C[C@H](NC(=O)[C@@H](O)[C@H](N)Cc1ccccc1)C(=O)O [UBENIMEX] | – | inhibition (INH) (H22): 45.37%
NCC(=O)N[C@H]1CC(=O)N(CC(=O)NO)C1=O | 1000 | –
O=C(CN1C(=O)C[C@H](NC(=O)[C@@H]2CCCN2)C1=O)NO | 1000 | –
CC(C)C[C@H](N)C(=O)N[C@H]1CC(=O)N(CC(=O)NO)C1=O | 1000 | –
Cl.N[C@@H](Cc1ccccc1)C(=O)N[C@H]1CC(=O)N(CC(=O)NO)C1=O | 1000 | inhibition (INH) (H22): 54.21%; IC50 (HL-60): 149000 nM; Ratio IC50 [1]: 2.4
